Reference: patent US12171901B2, “Powdered collagen wound care compositions” (priority 2021, dated 2024)
“And” between values parts separate entries of the source, which are not always exact repeats. Identical values can stand only once.

Tested on: skin of female albino New Zealand White rabbits
Experiment: Rabbit skin irritation
Description: Within 24 hours to 4 hours before test application, the backs of female albino New Zealand White rabbits were clipped free of hair, exposing 2 test and 2 control areas on each side of the spine with a size of approximately 15 cm×15 cm. The two test sites are located on the left cranial section and the right caudal section of the dorsal region. The two control sites are located on the left caudal and right cranial section of the dorsal region. FIG. 2 depicts the arrangement of test and control sites. The exposed skin is wiped with alcohol and dried. Rabbits of acceptable skin quality were selected and used for testing.
A 25×25 mm gauze patch saturated with 0.5 mL of 0.9% NaCl is used for the control and applied to the clipped control sites. The patches are secured using hypoallergenic, waterproof, surgical tape over the test and control sites. The animal's trunk is securely wrapped so as to maintain the position of the patches. Patches are left applied for a minimum of four hours.
After patch removal, the test and control sites were then scored for erythema and edema at 1, 24, 48 and 72 hours after patch removal. Only the 24, 48, and 72 hour observations were scored and used for calculations. If no response was expected, testing was conducted using three animals per test article. If irritation was anticipated, one animal was tested initially. If the first animal received a score of 2 or less for either erythema or edema, 2 additional rabbits were used to conclude the test.
This total was divided by the total number of observations. The same was done for the control sites. […] These scores for each animal were added and divided by the total number of animals to give the Primary Irritation Index. […] For any response, the Maximum Irritation Response, the time of onset of the response and the time of maximum response was recorded.
To positively validate the test, 10% sodium dodecyl sulfate (SDS), which is a known dermal irritant, in petroleum jelly was applied to a 2.5 cm×2.5 cm gauze patch. As a negative control, 0.5 mL of 0.9% NaCl was applied to a 2.5 cm×2.5 cm gauze patch. A Primary Irritation Index in the moderate to severe range is considered a positive result. The test system and methods utilized were the same as described above.

[1] = per rabbit, 24, 48 and 72 hour observations after patch removal, direct application, sulfate

Structure (SMILES): CCCCCCCCCCCCOS(=O)(=O)[O-].[Na+] [10% SDS, sodium dodecyl sulfate]
- Primary Irritation Index (3 animals): 6.4
- Total Average (sum over animals) (3 animals): 19.3
- ED (edema) score sum [1]: 19 and 21 and 14
- ER (erythema) score sum [1]: 21 and 23 and 18
- ER + ED = Total [1]: 40 and 44 and 32
